Assay results: ChEMBL document CHEMBL2046331, “Lead optimization of a sulfonylurea-based piperazine pyridazinone series of glucan synthase inhibitors” (Bioorg Med Chem Lett, 2012)
≈ marks a conversion by molar mass, not a printed value. Calls of active or inactive are those of the source. The rule behind the calls is not given here.

What was measured:
Beta-1,3-glucan synthase = target: T1, Beta-1,3-glucan synthase (Candida albicans, UniProt O13383); assay: Inhibition of glucan synthase in Candida albicans BWP17 membrane; format: cell membranes
T1 sequence (O13383 whole entry): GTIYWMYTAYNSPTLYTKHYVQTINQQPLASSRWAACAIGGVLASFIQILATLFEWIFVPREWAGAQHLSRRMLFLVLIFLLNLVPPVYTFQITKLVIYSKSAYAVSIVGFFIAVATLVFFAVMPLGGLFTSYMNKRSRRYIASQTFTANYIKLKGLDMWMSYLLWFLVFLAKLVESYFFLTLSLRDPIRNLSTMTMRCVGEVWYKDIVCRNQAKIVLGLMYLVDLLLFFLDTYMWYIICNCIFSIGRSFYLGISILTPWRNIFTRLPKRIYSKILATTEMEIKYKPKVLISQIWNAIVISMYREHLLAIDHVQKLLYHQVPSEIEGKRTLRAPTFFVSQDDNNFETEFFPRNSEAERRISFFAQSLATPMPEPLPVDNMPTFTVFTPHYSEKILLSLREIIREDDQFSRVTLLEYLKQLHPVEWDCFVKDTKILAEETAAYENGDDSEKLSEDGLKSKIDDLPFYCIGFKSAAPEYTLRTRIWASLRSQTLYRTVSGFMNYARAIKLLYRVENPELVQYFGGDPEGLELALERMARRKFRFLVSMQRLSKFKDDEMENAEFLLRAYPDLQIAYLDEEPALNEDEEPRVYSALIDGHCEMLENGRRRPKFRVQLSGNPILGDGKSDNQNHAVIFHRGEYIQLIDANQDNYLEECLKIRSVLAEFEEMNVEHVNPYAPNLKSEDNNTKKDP

Nakaseomyces glabratus = assay: Antifungal activity against Candida glabrata C624 by broth dilution method; format: functional; settings: read-out: MIC100
Candida albicans [1] = assay: Antifungal activity against Candida albicans C693 by broth dilution method; format: functional; settings: read-out: MIC100
Candida albicans [2] = assay: Antifungal activity against Candida albicans C43 by broth dilution method; format: functional; settings: read-out: MIC100
Candida albicans [3] = assay: Antifungal activity against Candida albicans C43 by broth dilution method in presence of 25% human serum; format: functional; settings: read-out: MIC100
Candida albicans [4] = assay: Antifungal activity against Candida albicans C375 by broth dilution method; format: functional; settings: read-out: MIC100
Aspergillus fumigatus = assay: Antifungal activity against Aspergillus fumigatus ND158 by broth dilution method; format: functional; settings: read-out: MEC
[5] = Clearance in rat hepatocytes assessed per million cells; format: ADME, cell-based, Hepatocyte; settings: read-out: CLH
[6] = AUC (0 to 6 hrs) in rat at 10 mg/kg, po; format: ADME, organism-based; set-up: time < 6 hr, dose 10 mg/kg, route oral; settings: plasma
Candida albicans [7] = assay: Antifungal activity against Candida albicans C43 systemically infected in mouse assessed as reduction in fungal burden in kidney at 100 mg/kg, ip administered daily for 4 days relative to vehicle treated control; format: functional, organism-based; set-up: dose 100 mg/kg
Candida albicans [8] = assay: Antifungal activity against Candida albicans C43 systemically infected in mouse assessed as reduction in fungal burden in kidney at 100 mg/kg, ip administered daily for 4 days relative to caspofungin; format: functional, organism-based; set-up: dose 100 mg/kg
[9] = Clearance in human hepatocytes assessed per million cells; format: ADME, cell-based, Hepatocyte; settings: read-out: CLH

Structure (SMILES)	IC50 (Beta-1,3-glucan synthase)	MIC (Nakaseomyces glabratus)	MIC (Candida albicans [1])	MIC (Candida albicans [2])	MIC (Candida albicans [3])	MIC (Candida albicans [4])	minimal effective concentration (Aspergillus fumigatus)	hepatocyte CLint [5]	AUC(0-t) at 6 h [6]	Activity (Candida albicans [7])	Activity (Candida albicans [8])	hepatocyte CLint [9]
CCN(CC)S(=O)(=O)N1CCN(/C(C=N)=C(\OC2CCCC2)C(=O)Nc2cccc(Cl)c2)CC1	625 nM	0.2 µg/mL (≈ 0.391 µM)	6.25 µg/mL (≈ 12.2 µM)	–	–	–	–	–	–	–	–	–
COc1cc(CNS(=O)(=O)N2CCN(/C(C=N)=C(\OCC3(C)CC3)C(=O)Nc3cccc(Cl)c3)CC2)ccc1N	157 nM	0.52 µg/mL (≈ 0.88 µM)	0.52 µg/mL (≈ 0.88 µM)	1.04 µg/mL (≈ 1.76 µM)	4.17 µg/mL	4.17 µg/mL (≈ 7.05 µM)	4.17 µg/mL	12.6 µL/min/1e6 cells	860 ng·h/mL	inactive	inactive	–
Cc1ccc(CNS(=O)(=O)N2CCN(/C(C=N)=C(\OC3CCC(F)C3)C(=O)Nc3cc(F)cc(F)c3)CC2)cc1N (mixture of isomers)	–	–	–	–	–	–	–	–	2580 ng·h/mL	–	–	–
CC1(CO/C(C(=O)Nc2cccc(Cl)c2)=C(/C=N)N2CCN(S(=O)(=O)NCc3ccncc3)CC2)CC1	91.4 nM	2.08 µg/mL (≈ 3.8 µM)	0.52 µg/mL (≈ 0.95 µM)	–	–	–	–	–	–	–	–	–
CC1(CO/C(C(=O)Nc2cccc(Cl)c2)=C(/C=N)N2CCN(S(=O)(=O)NCc3nc4ccccc4s3)CC2)CC1	398 nM	0.26 µg/mL (≈ 0.431 µM)	0.26 µg/mL (≈ 0.431 µM)	–	–	–	–	–	–	–	–	–
N=C/C(=C(/OC1CCCC1)C(=O)Nc1cccc(Cl)c1)N1CCN(S(=O)(=O)N2CCOCC2)CC1	2870 nM	0.39 µg/mL (≈ 0.741 µM)	25 µg/mL (≈ 47.5 µM)	–	–	–	–	–	–	–	–	–
CC(NS(=O)(=O)N1CCN(/C(C=N)=C(\OCC2(C)CC2)C(=O)Nc2cccc(Cl)c2)CC1)c1cccc(N)c1 (stereo not drawn)	522 nM	1.04 µg/mL (≈ 1.81 µM)	1.04 µg/mL (≈ 1.81 µM)	4.17 µg/mL (≈ 7.25 µM)	–	8.35 µg/mL (≈ 14.5 µM)	16.7 µg/mL	–	1300 ng·h/mL	–	–	–
CC1(CO/C(C(=O)Nc2cccc(Cl)c2)=C(/C=N)N2CCN(S(=O)(=O)NCc3ccc(N)c(F)c3)CC2)CC1	111 nM	0.13 µg/mL (≈ 0.224 µM)	0.06 µg/mL (≈ 0.104 µM)	0.13 µg/mL (≈ 0.224 µM)	1.04 µg/mL	0.52 µg/mL (≈ 0.898 µM)	1.04 µg/mL	12.7 µL/min/1e6 cells	–	–	–	–
COc1ccc(CNS(=O)(=O)N2CCN(/C(C=N)=C(\OCC3(C)CC3)C(=O)Nc3cccc(Cl)c3)CC2)cc1OC	297 nM	0.06 µg/mL (≈ 0.099 µM)	0.26 µg/mL (≈ 0.429 µM)	–	–	–	–	–	–	–	–	–
CC(C)NS(=O)(=O)N1CCN(/C(C=N)=C(\OC2CCCC2)C(=O)Nc2cccc(Cl)c2)CC1	361 nM	0.03 µg/mL (≈ 0.0602 µM)	0.52 µg/mL (≈ 1.04 µM)	–	–	–	–	–	–	–	–	–
CC1(CO/C(C(=O)Nc2cccc(Cl)c2)=C(/C=N)N2CCN(S(=O)(=O)NCc3ccc(F)c(N)c3)CC2)CC1	297 nM	0.52 µg/mL (≈ 0.898 µM)	0.52 µg/mL (≈ 0.898 µM)	2.08 µg/mL (≈ 3.59 µM)	–	4.17 µg/mL (≈ 7.2 µM)	2.08 µg/mL	–	–	–	–	–
CC(C)N(C)S(=O)(=O)N1CCN(/C(C=N)=C(\OC2CCCC2)C(=O)Nc2cccc(Cl)c2)CC1	1450 nM	0.39 µg/mL (≈ 0.762 µM)	10 µg/mL (≈ 19.5 µM)	–	–	–	–	–	–	–	–	–
CC1(CO/C(C(=O)Nc2cccc(Cl)c2)=C(/C=N)N2CCN(S(=O)(=O)NCc3cccnc3)CC2)CC1	201 nM	2.08 µg/mL (≈ 3.8 µM)	1.04 µg/mL (≈ 1.9 µM)	–	–	–	–	–	–	–	–	–
COC(=O)c1ccc(CNS(=O)(=O)N2CCN(/C(C=N)=C(\OCC3(C)CC3)C(=O)Nc3cccc(Cl)c3)CC2)cc1	530 nM	0.13 µg/mL (≈ 0.215 µM)	0.52 µg/mL (≈ 0.861 µM)	–	–	–	–	–	–	–	–	–
N=C/C(=C(/OC1CCCC1)C(=O)Nc1cccc(Cl)c1)N1CCN(S(=O)(=O)Nc2ccccc2)CC1	117 nM	0.16 µg/mL (≈ 0.301 µM)	> 25 µg/mL	–	–	–	–	–	–	–	–	–
CC1(CO/C(C(=O)Nc2cccc(Cl)c2)=C(/C=N)N2CCN(S(=O)(=O)NCc3ccccc3)CC2)CC1	5310 nM	2.08 µg/mL (≈ 3.81 µM)	> 33 µg/mL	–	–	–	–	–	–	–	–	–
Cc1ccc(CNS(=O)(=O)N2CCN(/C(C=N)=C(\OCC3(C)CC3)C(=O)Nc3cccc(Cl)c3)CC2)cc1N	125 nM	0.26 µg/mL (≈ 0.452 µM)	0.26 µg/mL (≈ 0.452 µM)	0.52 µg/mL (≈ 0.904 µM)	–	2.08 µg/mL (≈ 3.62 µM)	1.04 µg/mL	–	1410 ng·h/mL	–	–	19.6 µL/min/1e6 cells
Cc1cc(CNS(=O)(=O)N2CCN(/C(C=N)=C(\OCC3(C)CC3)C(=O)Nc3cccc(Cl)c3)CC2)ccc1N	108 nM	0.52 µg/mL (≈ 0.904 µM)	0.26 µg/mL (≈ 0.452 µM)	0.52 µg/mL (≈ 0.904 µM)	–	2.08 µg/mL (≈ 3.62 µM)	2.08 µg/mL	–	900 ng·h/mL	–	–	13.4 µL/min/1e6 cells
Cc1nc2ccc(CNS(=O)(=O)N3CCN(/C(C=N)=C(\OCC4(C)CC4)C(=O)Nc4cccc(Cl)c4)CC3)cc2s1	97.2 nM	0.06 µg/mL (≈ 0.0972 µM)	0.52 µg/mL (≈ 0.843 µM)	–	–	–	–	–	–	–	–	–
N=C/C(=C(/OC1CCCC1)C(=O)Nc1cccc(Cl)c1)N1CCN(S(=O)(=O)NCc2ccccc2)CC1	87.9 nM	< 0.02 µg/mL	0.03 µg/mL (≈ 0.0549 µM)	–	–	–	–	–	–	–	–	–
CN(C)S(=O)(=O)N1CCN(/C(C=N)=C(\OC2CCCC2)C(=O)Nc2cccc(Cl)c2)CC1	1900 nM	0.1 µg/mL (≈ 0.207 µM)	6.25 µg/mL (≈ 12.9 µM)	–	–	–	–	–	–	–	–	–
COc1ccc(CNS(=O)(=O)N2CCN(/C(C=N)=C(\OCC3(C)CC3)C(=O)Nc3cccc(Cl)c3)CC2)cc1N	237 nM	0.52 µg/mL (≈ 0.88 µM)	0.26 µg/mL (≈ 0.44 µM)	0.52 µg/mL (≈ 0.88 µM)	2.08 µg/mL	4.17 µg/mL (≈ 7.05 µM)	4.17 µg/mL	15 µL/min/1e6 cells	440 ng·h/mL	–	–	–
CC1(CO/C(C(=O)Nc2cccc(Cl)c2)=C(/C=N)N2CCN(S(=O)(=O)NCc3ccnc(N)c3)CC2)CC1	409 nM	2.08 µg/mL (≈ 3.7 µM)	8.35 µg/mL (≈ 14.9 µM)	16.7 µg/mL (≈ 29.7 µM)	–	> 33 µg/mL	16.7 µg/mL	–	50 ng·h/mL	–	–	–
N=C/C(=C(/OC1CCCC1)C(=O)Nc1cccc(Cl)c1)N1CCN(S(N)(=O)=O)CC1	42100 nM	16.7 µg/mL (≈ 36.6 µM)	> 33 µg/mL	–	–	–	–	–	–	–	–	–
CC1(CO/C(C(=O)Nc2cccc(Cl)c2)=C(/C=N)N2CCN(S(=O)(=O)NCc3nc4cc(Cl)ccc4o3)CC2)CC1	1300 nM	0.52 µg/mL (≈ 0.837 µM)	2.08 µg/mL (≈ 3.35 µM)	–	–	–	–	–	–	–	–	–
